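Following 48 hours of exposure in 96-well plates, responses at five concentrations were used to interpolate endpoints linearly. The concentration for 50% growth inhibition is given as GI50.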 Active and inactive are the calls of the source. No stated cut-off is given here; in the data, active = GI50 up to about 1.1 µM and inactive = higher. *1 amine or outer side, *2 acyl side, *3 side chain or, on linkers, in order; H or OH if unused. Where a SMILES comes first, the peptide text is derived from it. Bridges are numbered along the chain shown (N, C = ends). Roman numbers before positions name the chains, in order. [ ]: non-standard residue; d: D form. Actinocin(1to9) = Cc1c2oc3c(C)ccc(C(=O)[*:2])c3nc-2c(C(=O)[*:1])c(N)c1=O; NMeV = CN[CH](C(=O)O)C(C)C; Sar = CNCC(=O)O
What was measured:
Assay in all cases: DTP human tumour cell line panel, 48 h
HT-29 = tested on: HT-29
RPMI-8226 = tested on: RPMI-8226
HCT-15 = tested on: HCT-15
OVCAR-8 = tested on: OVCAR-8
SF-295 = tested on: SF-295
MOLT-4 = tested on: MOLT-4
SR = tested on: SR
SK-OV-3 = tested on: SK-OV-3
CAKI-1 = tested on: CAKI-1
SF-268 = tested on: SF-268
HOP-62 = tested on: HOP-62
Malme-3M = tested on: Malme-3M
SK-MEL-2 = tested on: SK-MEL-2
T47D = tested on: T47D
U-251 = tested on: U-251
RXF 393 = tested on: RXF 393
M14 = tested on: M14
TK-10 = tested on: TK-10
BT-549 = tested on: BT-549
DU-145 = tested on: DU-145

CCC(C)C1NC(=O)C(NC(=O)c2c3nc4c(C(=O)NC5C(=O)NC(C(C)C)C(=O)N6CCCC6C(=O)N(C)CC(=O)N(C)C(C(C)C)C(=O)OC5C)ccc(C)c4oc-3c(C)c(=O)c2N)C(C)OC(=O)C(C(C)C)N(C)C(=O)CN(C)C(=O)C2CCCN2C1=O (stereo not given) (I: TIP[Sar][NMeV] / II: TVP[Sar][NMeV]; ester I:1-I:C, II:1-II:C; linker I:N-II:N via Actinocin(1to9); configuration not given here)
GI50 (HT-29): < 0.1 nM (active) | GI50 (RPMI-8226): < 0.1 nM (active) | GI50 (HCT-15): 80.7 nM | GI50 (OVCAR-8): 0.443 nM (active) | GI50 (SF-295): 0.353 nM (active) | GI50 (MOLT-4): < 0.1 nM (active) | GI50 (SR): 0.244 nM (active) | GI50 (SK-OV-3): 15.2 nM (active) | GI50 (CAKI-1): 3.78 nM (active) | GI50 (SF-268): 0.916 nM (active) | GI50 (HOP-62): 0.594 nM (active) | GI50 (Malme-3M): 0.689 nM (active) | GI50 (SK-MEL-2): 1.72 nM (active) | GI50 (T47D): 1.83 nM (active) | GI50 (U-251): < 0.1 nM (active) | GI50 (RXF 393): 10 nM (active) | GI50 (M14): 2.69 nM (active) | GI50 (TK-10): 13.7 nM (active) | GI50 (BT-549): 2.47 nM (active) | GI50 (DU-145): 4.75 nM (active)
